Measurements published in US12496298B2, “Natural killer cells” (Imperial College Innovations Limited, priority 2017, dated 2025).

How the values were obtained:
[1] = tested on: E4bp4; experiment: RT-qPCR relative expression of E4bp4 in cultured HPCs; type: cell-based, mouse
Protocol: (§1) FIG. 8: HPCs were cultured with or without 5 μM SR8278 added on Day 2. At Day 3, 4 and 5, cells were harvested in order to quantify their relative […] by RT-qPCR. The graphs show relative expression of (A) E4bp4, (B) Id2 and (C) Eomes normalized to the housekeeping gene, Hprt.
(§2) HPCs isolated from a WT mouse were cultured as previously (FIG. 2) but the cells were harvested and analysed using RT-qPCR on Day 3, 4 and 5. The relative expression of the E4bp4, Id2 and Eomes genes was compared to the housekeeping gene, Hprt. At Day 4, E4bp4, Id2 and Eomes expression was higher in SR8278 treated samples when compared to the ‘No drug’ control (FIG. 8). The increase in E4bp4 expression disappeared at Day 5 but the increase of Id2 expression remained (FIG. 8B). The upregulation of E4bp4 and its downstream targets happens in a matter of hours and only stays high for a defined period of time.
(§3) RNA was extracted using Qiagen RNeasy Micro Kit according to the manufacture's protocol (Qiagen). Centrifugation was done at 8000 g for 15 seconds and the flow through discarded. Briefly, 350 μl of Buffer RLT+10% β-Mercaptoethanol were added to the harvested cells. […] The concentration of RNA in each sample was measured using Nanodrop, and all samples were diluted to the same working concentration. […]

[2] = tested on: Id2; experiment: RT-qPCR relative expression of Id2 in cultured HPCs; type: cell-based, mouse
Protocol: as §1, §2, §3

[3] = tested on: Eomes; experiment: RT-qPCR relative expression of Eomes in cultured HPCs; type: cell-based, mouse; conditions: 5 μM added Day 2, harvested Day 4
Protocol: as §1, §2, §3

[4] = tested on: HPCs; experiment: Live cells / toxicity in mouse HPC culture under NK cell-producing conditions; type: cell-based
Protocol: FIG. […] At Day 9, percentage of NK cells was quantified using flow cytometry. (A) Graph showing relative mature mouse NK cell (NK1.1+ CD3−) production when 5 and 10 μM SR8278 were added on different days compared to the ‘No drug’ control. (B) Representative flow cytometry results with percentage of NK cells shown. Addition of 5 μM SR8278 is shown on the top, whereas addition of 10 μM SR8278 is shown on the bottom. […] Results were averaged from two experiments with four repeats each and the error bars represent the mean+SD. Asterisks indicate significant differences from the two annotated results (* is P≤0.01, *** is P≤0.0001 and **** is P≤0.00001) based on Mann-Whitney test.
The HPCs were plated and cultured in 24-well plates at a concentration of 5×10^5 HPCs/well in 1 ml of complete cytokine medium (Dulbecco's modified eagle medium (DMEM) (Sigma Aldrich), 10% FCS, 50 μM β-Mercaptoethanol, 10 ng/ml Flt3-ligand (FIt3L) (R&D Systems), 10 ng/ml IL-7 (R&D Systems), 100 ng/ml stem cell factor (SCF) (R&D Systems) and 1% P/S) for 2 days at 37° C., 5% CO2. […]
Cells to be analysed by flow cytometry were passed through 40 μm cell strainers to remove clumps and washed with PBS buffer, centrifuged at 800 g for 2 minutes and resuspended in 100 μl fluorescent activated cell sorting (FACS) buffer (PBS plus 1% BSA) with appropriate fluorochrome conjugated antibodies at a dilution of 1 in 300. […]

[5] = 5 μM added Day 2, harvested Day 4
[6] = 5 μM added Day 2, harvested Day 5

CCOC(=O)C1Cc2ccccc2CN1C(=O)c1ccc(SC)s1 (stereo not shown) [SR8278, 1,2,3,4-Tetrahydro-2-[[5-(methylthio)-2-thienyl]carbonyl]-3-isoquinolinecarboxylic acid ethyl ester]
E4bp4 expression relative to Hprt, compared to 'No drug' control [1, 5]: higher | increase in E4bp4 expression [1, 6]: disappeared | Id2 expression relative to Hprt, compared to 'No drug' control [2, 5]: higher | increase of Id2 expression [2, 6]: remained | Eomes expression relative to Hprt, compared to 'No drug' control [3]: higher | toxicity to cells in culture ([4]; 20 μM): toxic and killed most of the cells | numbers of live cells compared to 'No drug' control ([4]; added at Days 0 and 1, 5 and 10 μM): remarkably low
